In patent US9718760B2, “Plasminogen activator inhibitor-1 inhibitors and methods of use thereof” (THE REGENTS OF THE UNIVERSITY OF MICHIGAN, priority 2012, dated 2017):

Experiments:
Format in all cases: biochemical
[1] = molecular target: T1, recombinant active human PAI-1 (Homo sapiens (Human), UniProt P05121); assay: Fluorometric PAI-1/tPA IC50 plate assay at pH 7.8; settings: physiologic buffer
Protocol: (§1) Additional fluorometric plate assays were carried out, as set out below, to determine the IC50 of various synthesized compounds as PAI-1 inhibitors.
PAI-1 inhibitor compounds were dissolved in DMSO to a final concentration of (10-50 mM), depending upon solubility. […] Tissue type PA activity in each reaction mixture was determined by adding Phe-Gly-Arg-AMC fluorogenic substrate (100 μL of 100 μM) (Centerchem). The rate of AMC release by tPA was measured at an excitation wavelength of 370 nm and an emission wavelength of 440 nm. Controls included PAI-1 and tPA in the absence of compound and tPA alone. Percent PAI-1 inhibition was calculated using the following formula: [(tPA alone-tPA/PAI-1+ compound)/(tPA alone-PAI-1/tPA)]*100%. The IC50 is calculated using Graphit (IC50 0-100%).

[2] = molecular target: T1, recombinant active human PAI-1; assay: Fluorometric PAI-1/uPA IC50 plate assay at pH 7.8; settings: physiologic buffer
Protocol: To determine the efficacy of various synthesized compounds as PAI-1 inhibitors at pH 7.8, additional fluorometric plate assays were carried out to measure the half maximal inhibitory concentration (IC50) of these compounds on recombinant active human PAI-1 in vitro.
PAI-1 inhibitor compounds were dissolved in DMSO to a final concentration of (10-50 mM), depending upon solubility. […] Fluorescence, as a measure of the rate of AMC release by uPA, was read at the following wavelengths; excitation 370 nm, emission 440 nm. Controls included PAI-1 and uPA in the absence of compound and uPA alone. Percent PAI-1 inhibition was calculated using the following formula: [(uPA alone-uPA/PAI-1+ compound)/(uPA alone-PAI-1/uPA)]*100%. The IC50 was calculated using Graphit (IC50 0-100%).

[3] = molecular target: anti-thrombin III (ATIII) (Homo sapiens (Human), UniProt P01008); assay: Fluorometric ATIII/αIIa IC50 plate assay at pH 7.8 (specificity control); settings: physiologic buffer
Protocol: as §1
Alpha-thrombin is an active enzyme, related to uPA or tPA. Alpha-thrombin is inhibited by the serpin ATIII, which is closely related to PAI-1. This assay was used therefore as a control in testing for specificity of the PAI-1 inhibitor compounds. Thus, any compound that is specific for inhibiting PAI-1 should not inhibit ATIII.
PAI-1 inhibitor compounds were dissolved in DMSO to a final concentration of (10-50 mM), depending upon solubility. […] 100 μL of 100 μM fluorogenic, tripeptide aminomethylcoumarin benzoyl Phe-Val-Arg-AMC substrate was then added and residual αIIa activity was determined based upon cleavage of this substrate. The rate of AMC release by αIIa was measured at an excitation wavelength of 370 nm and an emission wavelength of 440 nm. Controls included PAI-1 and αIIa in the absence of compound and αIIa alone. Percent PAI-1 inhibition is calculated using the following formula: [(αIIa alone-αIIa/PAI-1+ compound)/(αIIa alone-PAI-1/αIIa)]*100%. The IC50 is calculated using Graphit (IC50 0-100%).

[4] = molecular target: T1, recombinant active human PAI-1; assay: Fluorometric PAI-1/uPA IC50 plate assay at pH 7.4
Protocol: To determine the efficacy of various synthesized compounds as PAI-1 inhibitors, a fluorometric plate assay was carried out to measure the half maximal inhibitory concentration (IC50) of these compounds on recombinant active human PAI-1 in vitro. An IC50 is a measure of the effectiveness of a compound in inhibiting biological or biochemical function. Stated another way, IC50 represents the concentration of a drug that is required for 50% inhibition in vitro.
PAI-1 inhibitor compounds were dissolved in DMSO to a final concentration of (10-50 mM), depending upon solubility. Compounds were then diluted in physiologic buffer (40 mM HEPES, 100 mM NaCl, 0.05% Tween-20, pH7.4) containing 10% DMSO and a dilution series (from 0 to 1000 uM depending on solubility) was prepared. 80 μL of compound was added per well to a 96-well black, opaque microplate in duplicate. 10 μL of 20 nM Recombinant active human PAI-1 (Molecular Innovations) in physiologic buffer (40 mM HEPES, 100 mM NaCl, 0.05% Tween-20, 10% DMSO, pH 7.4), or […] physiologic buffer with 10% human plasma, was added and the mixture was agitated for 15 minutes at room temperature. 10 μL of 25 nM uPA (Rheotromb®) was added to each reaction well and the plate was agitated for an additional 30 minutes at room temperature. Tripeptide aminomethylcoumarin Gly-Gly-Arg-AMC (Calbiochem) fluorogenic substrate (100 μL of 100 μM) was then added and residual uPA activity was determined based upon cleavage of this substrate. The rate of AMC release by uPA (fluorescence) was measured at an excitation wavelength of 370 nm and an emission wavelength of 440 nm. Controls included PAI-1 and uPA in the absence of compound and uPA alone. Percent PAI-1 inhibition was calculated using the following formula: [(uPA alone-uPA/PAI-1+ compound)/(uPA alone-PAI-1/uPA)]*100%. The IC50 was calculated using Graphit (IC50 0-100%).

[5] = physiologic buffer (40 mM HEPES, 100 mM NaCl, 0.05% Tween-20, 10% DMSO), read-out: PAI-1/uPA IC50 in buffer

Sequence of anti-thrombin III (ATIII) (P01008 33-464 limits assumed, species assumed): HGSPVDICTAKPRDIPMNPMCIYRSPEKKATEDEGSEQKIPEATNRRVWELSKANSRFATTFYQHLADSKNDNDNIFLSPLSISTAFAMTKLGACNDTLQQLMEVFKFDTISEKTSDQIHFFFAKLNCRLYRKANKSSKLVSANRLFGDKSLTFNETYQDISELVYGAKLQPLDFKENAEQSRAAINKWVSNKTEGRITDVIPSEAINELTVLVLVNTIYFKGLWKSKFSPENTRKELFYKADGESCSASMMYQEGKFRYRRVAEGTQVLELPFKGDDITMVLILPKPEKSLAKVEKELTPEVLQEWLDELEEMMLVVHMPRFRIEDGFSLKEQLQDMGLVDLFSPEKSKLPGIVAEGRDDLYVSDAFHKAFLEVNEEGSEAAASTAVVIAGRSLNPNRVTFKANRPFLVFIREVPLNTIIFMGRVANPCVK
T1 sequence (P05121 24-402): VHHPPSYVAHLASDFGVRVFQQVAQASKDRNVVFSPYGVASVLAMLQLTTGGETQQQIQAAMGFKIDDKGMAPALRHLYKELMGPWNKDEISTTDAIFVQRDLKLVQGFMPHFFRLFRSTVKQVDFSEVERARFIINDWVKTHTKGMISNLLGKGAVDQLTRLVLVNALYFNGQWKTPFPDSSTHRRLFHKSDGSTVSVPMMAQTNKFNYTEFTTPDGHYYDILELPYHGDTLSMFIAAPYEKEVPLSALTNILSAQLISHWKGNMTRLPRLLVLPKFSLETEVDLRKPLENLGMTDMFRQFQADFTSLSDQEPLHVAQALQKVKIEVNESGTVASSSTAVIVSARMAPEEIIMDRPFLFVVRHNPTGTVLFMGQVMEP

CCCCCCCCN(S(=O)(=O)c1ccc(O)c(O)c1)S(=O)(=O)c1cc(F)c(O)c(F)c1 [C152]
IC50 [1]: 1.71 µM | IC50 [2]: 1.57 µM | IC50 [3]: 87 µM

O=S(=O)(c1ccc(O)c(O)c1)N(c1ccccc1)S(=O)(=O)c1ccc(O)c(O)c1 [C153]
IC50 [1]: 1.02 µM | IC50 [2]: 0.7 µM

CCCCCCCCN(S(=O)(=O)c1cc(F)c(O)c(F)c1)S(=O)(=O)c1cc(F)c(O)c(F)c1 [C155]
IC50 [1]: 34.8 µM | IC50 [2]: 30.4 µM | IC50 [3]: 2330 µM

CC(C)(C)OC(=O)NCCCOC(=O)c1cc(O)c(O)c(O)c1 [C156]
IC50 [1]: 581 µM | IC50 [2]: 189 µM

CCCCCCCCCCN(S(=O)(=O)c1ccc(O)c(O)c1)S(=O)(=O)c1ccc(O)c(O)c1 [C157]
IC50 [1]: 0.98 µM | IC50 [2]: 0.25 µM | IC50 [3]: 44.4 µM

CCCCCCCCCCCCN(S(=O)(=O)c1ccc(O)c(O)c1)S(=O)(=O)c1ccc(O)c(O)c1 [C158]
IC50 [1]: 1.44 µM | IC50 [2]: 2.6 µM | IC50 [3]: 547 µM

O=S(=O)(NCc1ccccc1)c1ccc(O)c(O)c1 [C160]
IC50 [1]: 58.2 µM | IC50 [2]: 39 µM | IC50 [3]: 2330 µM

CCCCCCCCNC(=O)c1cc(O)c(O)c(O)c1 [C161]
IC50 [1]: 2.21 µM | IC50 [2]: 3.7 µM | IC50 [3]: 1670 µM

O=S(=O)(c1ccc(O)c(O)c1)N(CCc1ccccn1)S(=O)(=O)c1ccc(O)c(O)c1 [C162]
IC50 [1]: 7.59 µM | IC50 [2]: 3.9 µM

O=S(=O)(c1ccc(O)c(O)c1)N(c1cccc(C(F)(F)F)c1)S(=O)(=O)c1ccc(O)c(O)c1 [C163]
IC50 [1]: 0.611 µM | IC50 [2]: 0.288 µM

O=S(=O)(c1ccc(O)c(O)c1)N(c1ccc(-c2ccccc2)cc1)S(=O)(=O)c1ccc(O)c(O)c1 [C165]
IC50 [1]: 0.51 µM | IC50 [2]: 0.35 µM

O=C(OCC(CNS(=O)(=O)c1cccc(C(F)(F)F)c1)OC(=O)c1ccc(O)c(O)c1)c1ccc(O)c(O)c1 (stereo not shown) [C204]
IC50 [2]: 0.035 µM

O=S(=O)(c1ccc(O)c(O)c1)N1CCc2ccccc21 [C205]
IC50 [2]: 5.05 µM

O=C1S/C(=C\c2ccc(O)c(O)c2)C(=O)N1Cc1cccc(Br)c1 [C206, (Z)-3-(3-bromobenzyl)-5-(3,4-dihydroxybenzylidene)thiazolidine-2,4-dione]
IC50 [2]: 4.96 µM

O=C1S/C(=C\c2ccc(O)c(O)c2)C(=O)N1Cc1cccc(-c2ccc(OC(F)(F)F)cc2)c1 [C207, (Z)-5-(3,4-dihydroxybenzylidene)-3-((4′-(trifluoromethoxy)-[1,1′-biphenyl]-3-yl)methyl)thiazolidine-2,4-dione]
IC50 [2]: 16.8 µM

CC(C)(C)n1nc(-c2ccccc2)nc1Cc1ccc(O)c(O)c1 [C208]
IC50 [2]: 77.2 µM

O=S(=O)(NCCc1ccc(O)c(O)c1)c1ccccc1 [C210]
IC50 [2]: 190 µM

CCCCCc1nc(Cc2ccc(O)c(O)c2)n(C(C)(C)C)n1 [C220]
IC50 [2]: 116 µM

CC(C)(C)n1nc(C2CC2)nc1Cc1ccc(O)c(O)c1 [C221]
IC50 [2]: 1610 µM

CC(C)(C)n1nc(-c2ccc(O)cc2)nc1Cc1ccc(O)c(O)c1 [C222]
IC50 [2]: 236 µM

CCCCCc1nc(Cc2ccc(O)c(O)c2)n(C(C)(C)C)n1 [C223]
IC50 [2]: 125 µM

CCCCCCCCN(S(=O)(=O)c1ccc(O)cc1)S(=O)(=O)c1ccc(O)c(O)c1 [C224]
IC50 [2]: 4.34 µM

O=S(=O)(NCCCc1ccccc1)c1ccc(O)c(O)c1 [C232]
IC50 [2]: 13.3 µM

O=S(=O)(NCCc1ccccc1)c1ccc(O)c(O)c1 [C233]
IC50 [2]: 74.8 µM

O=C(OCCOC(=O)c1ccc(O)c(O)c1)c1cc(O)cc(O)c1 [C236]
IC50 [2]: 174 µM

O=C(O)CCCCNS(=O)(=O)c1ccc(O)c(O)c1 [C249]
IC50 [2]: 663 µM

NC(=O)[C@H](Cc1ccccc1)NS(=O)(=O)c1ccc(O)c(O)c1 [C270]
IC50 [2]: 29.5 µM

O=C(O)CCCCCNS(=O)(=O)c1ccc(O)c(O)c1 [C271]
IC50 [2]: 1.82 µM

O=C(O)[C@H](Cc1ccccc1)NS(=O)(=O)c1ccc(O)c(O)c1 [C272]
IC50 [2]: 16.4 µM

O=C(O)[C@@H](NS(=O)(=O)c1ccc(O)c(O)c1)c1ccccc1 [C273]
IC50 [2]: 55.6 µM

O=C(O)[C@H](NS(=O)(=O)c1ccc(O)c(O)c1)c1ccccc1 [C274]
IC50 [2]: 73.6 µM

O=C(O)[C@@H](Cc1ccccc1)NS(=O)(=O)c1ccc(O)c(O)c1 [C275]
IC50 [2]: 30.5 µM

CCCCCCCCN(S(=O)(=O)c1cccc(O)c1)S(=O)(=O)c1ccc(O)c(O)c1 [C292]
IC50 [2]: 4.94 µM | IC50 [4, 5]: 68 µM

CCCCCCCCN(S(=O)(=O)c1cccc(O)c1)S(=O)(=O)c1cccc(O)c1 [C293]
IC50 [2]: 77.6 µM | IC50 [4, 5]: 123 µM

CCCCCCCCN(S(=O)(=O)c1ccc(O)cc1)S(=O)(=O)c1cccc(O)c1 [C294]
IC50 [2]: 120 µM | IC50 [4, 5]: 234 µM

O=S(=O)(NCc1ccc(Cl)c(C(F)(F)F)c1)c1ccc(O)c(O)c1 [C303]
IC50 [2]: 13.6 µM | IC50 [4, 5]: 12.6 µM

O=C(CCc1ccc(O)c(O)c1)NCc1ccc(Cl)c(C(F)(F)F)c1 [C330, N-(4-chloro-3-(trifluoromethyl)benzyl)-3-(3,4-dihydroxyphenyl)propanamide]
IC50 [2]: 423 µM | IC50 [4, 5]: 365 µM | IC50 ([4]; physiologic buffer with 1.5% BSA (15 mg/mL), read-out: PAI-1/uPA IC50 in 1.5% BSA buffer): 112 µM | IC50 ([4]; physiologic buffer with 10% human plasma, read-out: PAI-1/uPA IC50 in 10% plasma buffer): 115 µM
